Test: gradient 5% acetonitrile 3 min, to 50% in 2 min, to 85% in 15 min, held 3 min, 100 µL/min
Details: column: Zorbax Extend-C18 2.1 x 50 mm; eluents: water / acetonitrile, 0.1% formic acid
In short: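 Using water and acetonitrile that each contained 0.1% formic acid, mixtures of ~100 pure standards were separated at 100 μL/min on a Zorbax Extend-C18 column (2.1 × 50 mm, 1.8 μm). The HPLC fed a quadrupole time-of-flight mass spectrometer working in positive and negative ionization mode, with dead and dwell volumes of 40 μL and 900 μL. Data were acquired over 3 months. Retention time was read from computationally picked adduct peaks after manual inspection of each.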

| SMILES | RP-LC retention time [s] |
| --- | --- |
| O=C(NCc1ccccc1)C12CC3CCC(CC(C3)C1)C2 | 1020 |
| Cc1cc(C)cc(Oc2nccn3c(=O)n(CC(=O)Nc4c(C)cccc4C)nc23)c1 | 906 |
| Fc1ccc(CSc2ncnc3nc[nH]c23)cc1 | 719 |
| COc1ccc(CNC(=O)Nc2nnc(-c3ccc4c(c3)CCCC4)o2)cc1 | 925 |
| COc1cccc(-n2c(=O)c(C(=O)NCc3cccs3)c(O)c3cccnc32)c1 | 1170 |
| COC(=O)c1cccc(C(=O)Nc2cccc(Cl)c2C)n1 | 976 |
| COc1ccc(-c2ncc3c(n2)CCN(C(=O)Nc2cccc(C(C)=O)c2)C3)cc1 | 810 |
| COc1cccc(C(C)NC(=O)CN2C(=O)NC3(CCCCC3)C2=O)c1 (centres undefined) | 748 |
| CCN(CC)C(=O)c1cc2c(s1)CCC(C(=O)N1CCC(C)CC1)C2 (centres undefined) | 806 |
| Cc1sc(-c2noc(C(C)C)n2)cc1S(=O)(=O)N1CCC(C(=O)N2CCC(C)CC2)CC1 | 1150 |
| CS(=O)(=O)N1CCC(OC2CCN(C(=O)Nc3ccc(F)cc3F)CC2)CC1 | 720 |
| CN(Cc1ccco1)C(=O)c1nc2ccccn2c1-c1ccc(F)cc1 | 705 |
| CCc1nc2cc(-c3noc(-c4ccc(OC)cc4)n3)ccc2o1 | 1180 |
| Cc1cccc(NS(=O)(=O)c2cn(CC(C)C)c3ncccc23)c1C | 1070 |
| Cc1nnc2ccc(-c3noc(-c4ccc(F)cc4)n3)cn12 | 865 |
| O=C(COc1ccccc1)N1CC(n2cc(COCC3CC3)nn2)C1 | 717 |
| COc1ccc(N2C=C(C(=O)N3CCCC3)S(=O)(=O)c3ccc(F)cc32)cc1Cl | 838 |
| CCOC(=O)C(Cc1c(C)[nH]c2ccccc12)C(=O)OCC | 1000 |
| Cc1ccccc1CNC(=O)c1ccc2c(c1)nc1n2CCN(C2CCCCC2)C1=O | 836 |
| Cc1ccc(CNC(=O)C2(C)CN(S(=O)(=O)c3ccccc3)CC(=O)N2c2ccc(F)cc2)cc1 (centres undefined) | 942 |
| CC(C)n1cnc(S(=O)(=O)N2CCC(C(=O)Nc3ccc(F)cc3F)CC2)c1 | 728 |
| CNC(=O)C1CCCN(c2nc3ncn(CC(=O)Nc4c(C)cccc4C)c(=O)c3s2)C1 (centres undefined) | 661 |
| Cc1cc(=O)n(CC(=O)Nc2ccc(Br)cc2F)c(N2CCC(C)CC2)n1 | 750 |

| SMILES | RP-LC retention time [s] |
| --- | --- |
| CCOc1ccc(-n2ccnc(NC(=O)Nc3cccc(OC)c3)c2=O)cc1 | 980 |
| Cc1sc2ccn(C)c(=O)c2c1C(=O)NCc1ccccc1Br | 834 |
| COc1nn(C)cc1C(=O)N1CCc2nc(NC(=O)c3ccco3)sc2C1 | 599 |
| COc1ccc(NC(=O)c2sc(-c3cn(C)c4ncccc34)nc2C)cc1 | 867 |
| Cn1cc(S(=O)(=O)N2CCOCC2)cc1C(=O)Nc1ccccc1 | 801 |
| CCCCN1CCN(C(=O)c2ccc(-c3ccnc(N4CCCC4)n3)cc2)CC1 | 573 |
| COc1ccc2c(=O)c(Oc3ccc(C(=O)Nc4cccnc4)cc3)coc2c1 | 605 |
| CC(C)(C)c1noc(-c2cccnc2-n2cnc(C(=O)Nc3ccc(F)cc3)c2)n1 | 984 |
| Cc1ccc(CNC(=O)c2ccc(-c3cccs3)nc2)o1 | 869 |
| Cc1cc(C)cc(NC(=O)CN2CCC(C(=O)NCc3ccccn3)CC2)c1 | 548 |
| COc1cccc(Nc2c(-c3ccc(C(=O)O)cc3)nc3cnccn23)c1 | 681 |
| Cc1cccc(NS(=O)(=O)c2cc(-c3[nH]ncc3C(=O)N3CCCCC3)oc2C)c1C | 822 |
| Cc1ncc2c(n1)C[C@@H]1CC[C@H]2N1S(=O)(=O)c1ccc(F)c(C)c1 | 732 |
| Cc1ccn2cc(CC(=O)Nc3ccccc3)nc2c1 | 588 |
| CS(=O)(=O)N1CCC(CNC(=O)C(=O)Nc2cc(Cl)ccc2C#N)CC1 | 743 |
| CC(C)CNC(=O)C1COC2(CCCCC2)N1C(=O)c1ccccc1C(F)(F)F (centres undefined) | 938 |
| CCOC(=O)c1ccc(NC(=O)NCC(c2cccnc2)c2c[nH]c3ccccc23)cc1 (centres undefined) | 814 |
| Cc1nc(OCC(=O)Nc2ccc(Cl)c(C(F)(F)F)c2)c2ccccc2n1 | 892 |
| CN(CC1(C)CCOCC1)C(=O)NCc1ccco1 | 649 |
| O=C(CCC(=O)N1CC(n2cnnc2C2CCOCC2)C1)N1CCOCC1 | 550 |
| CCOC(=O)c1noc2ncnc(Nc3ccc(C)cc3C)c12 | 1030 |
| CCCn1c(CCNC(=O)c2ccc(F)cc2F)nc2cccnc21 | 675 |
| O=C(CCc1csc(NC(=O)c2ccc(F)cc2)n1)NCCn1ncccc1=O | 624 |

| SMILES | RP-LC retention time [s] |
| --- | --- |
| CCOC(=O)c1noc2ncnc(Nc3ccc(C)cc3)c12 | 1010 |
| Cc1ccccc1Nc1c(-c2c(F)cccc2Cl)nc2ccc(Br)cn12 | 997 |
| Cc1cccc(Nc2nc(CC(=O)NCCOc3ccc(F)cc3)cs2)n1 | 651 |
| CCC(=O)Nc1ccc(CCc2nc3ccc(C(=O)NC(C)c4ccccc4)cc3[nH]2)cc1 (centres undefined) | 658 |
| CCOC(=O)c1c(NCCC(C)C)c2cccc(Cl)c2[nH]c1=O | 890 |
| Cc1ccc(F)cc1S(=O)(=O)NC1CCN(c2ccccc2)C1=O (centres undefined) | 928 |
| O=[N+]([O-])c1ccc2c(c1)S(=O)c1ccccc1-2 (centres undefined) | 782 |
| COc1ccc(NCc2ccc3c(c2)n(C)c(=O)n3C)cc1Cl | 1150 |
| CCOc1ccccc1NC(=O)CC1Sc2ccccc2NC1=O (centres undefined) | 829 |
| O=C(c1cccc(Cl)c1)N(CCS(=O)(=O)N1CCNCC1)CC1CCCO1 (centres undefined) | 618 |
| O=C1Cc2cc(NC(=O)Nc3ccc(Cl)c(Cl)c3)ccc2N1 | 742 |
| O=C(NC1CCS(=O)(=O)C1)C1CCN(S(=O)(=O)c2cccs2)CC1 (centres undefined) | 616 |
| O=C(CSc1nnc2c3ccccc3nc(-c3ccco3)n12)NCc1nc2ccccc2[nH]1 | 625 |
| CCc1sc(NC(=O)c2cc(Cl)c(NC(C)=O)cc2OC)nc1-c1ccccc1 | 1170 |
| CCOc1cc(C(=O)Nc2ccc(Cl)c(-c3nc4ccccc4[nH]3)c2)cc(OCC)c1OCC | 967 |
| O=C(Cn1nc2c(SC3CCCCC3)nccn2c1=O)N1CCN(c2ccccc2)CC1 | 1110 |
| Cc1nc2c(sc3nc(-c4ccccc4)ccc32)c(=O)n1CC(=O)NCc1ccc(Cl)cc1 | 1210 |
| COc1ccc(C2Cn3nc(-c4nc(C(C)(C)C)no4)cc3CO2)cc1 (centres undefined) | 611 |
| Cc1ccc(NC(=O)Cc2nnc(-c3cnccn3)o2)c(C)c1 | 700 |
| O=C(CN1C(=O)CSc2cccn2-c2ccccc21)NCc1ccc(F)cc1 | 866 |
| CCn1nccc1C(=O)N1CC(n2cc(C(=O)N3CCOCC3)nn2)C1 | 610 |
| COc1ccccc1CNC(=O)c1ccc2c(c1)N(C)C(=O)C1CCCCN21 (centres undefined) | 880 |
| CCOC(=O)c1cnc2c(OC)cccc2c1NCC1COc2ccccc2O1 (centres undefined) | 782 |

| SMILES | RP-LC retention time [s] |
| --- | --- |
| COc1ccc(NC(=O)N2CCCC2c2nc(-c3ccc(F)cc3F)no2)cc1F (centres undefined) | 940 |
| COc1ccc(NC(=O)N2CC(N(C3CCOCC3)S(C)(=O)=O)C2)cc1OC | 630 |
| Cc1nn(-c2ccc(Cl)cc2)c2nc(N3CCCC(C(=O)NCc4cccc(F)c4)C3)sc12 (centres undefined) | 1240 |
| CC(C)NC(=O)CN1C(=O)COc2ccc(C(=O)N3CCc4ccccc4C3)cc21 | 744 |
| COC(=O)c1ncn2c1C(=O)N(CCCc1ccccc1)C(C)(C(=O)NC1CCCCC1)C2 (centres undefined) | 820 |
| COc1ccc(-c2noc(Cn3nc(-c4ccc(C)cc4)ccc3=O)n2)c(OC)c1 | 949 |
| Cc1[nH]c2ccccc2c1C(=O)C(c1ccccc1)N1CCN(c2ncccn2)CC1 (centres undefined) | 682 |
| COc1ccccc1C(=O)N1C[C@H](c2nc(-c3ccncc3)no2)[C@@H](C)C1 | 737 |
| Cc1ccsc1C(=O)Nc1ccc(SCc2nnc(-c3ccc4c(c3)OCO4)o2)cc1 | 978 |
| COc1ccc(Cl)cc1NC(=O)CSc1ccc2nnc(-c3cccc(F)c3)n2n1 | 802 |
| CCC(C(=O)NCCN1CCN(CC)CC1)n1c2ccccc2c2cnn(C)c(=O)c21 (centres undefined) | 595 |
| COCCNC(=O)CCCn1c(=O)c2cccn2c2ccccc21 | 680 |
| CC1CCN(S(=O)(=O)c2ccc(-c3nnc(C(=O)NCCCN4CCCCCC4)o3)cc2)CC1 | 712 |
| CCc1nnc(-c2ccc(S(=O)(=O)N3CCN(CC(C)C)CC3)o2)o1 | 612 |
| Cn1cc2c3c(cccc31)CN(C(=O)c1ccccc1Br)CC2 | 968 |
| O=C(CS(=O)Cc1cnn(-c2ccccc2)c1-n1cccc1)N1CCC(Cc2ccccc2)CC1 (centres undefined) | 1010 |
| Cc1cc(Br)ccc1NC(=O)C(=O)Nc1ccc2nc3n(c(=O)c2c1)CCCCC3 | 990 |
| CC(NC(=O)c1cn2cc(Cl)ccc2n1)c1ccc(F)cc1 (centres undefined) | 836 |
| CCOC(=O)c1cc(S(=O)(=O)N2CCCC2C(=O)NC2CCCCCCC2)cn1C (centres undefined) | 1020 |
| Cc1cccc(C(=O)Nc2nc(-c3ccc4c(c3)N(C)C(=O)CO4)cs2)c1 | 985 |

Reference: the METLIN SMRT retention time set (Domingo-Almenara et al. 2019)
